This is an account of results in US11066392B2, “Inhibitors of indoleamine 2,3-dioxygenase and methods of their use” (BRISTOL-MYERS SQUIBB COMPANY, priority 2017, dated 2021).

The target in the experiment is indoleamine 2,3-dioxygenase (IDO) (Homo sapiens, UniProt P14902). Kind of experiment: HeLa cell-based indoleamine 2,3-dioxygenase (IDO) assay (kynurenine production, IFNγ-stimulated). As to conditions: HeLa cells. As for the experimental part:
Assessment of inhibitor activity in HeLa cell-based indoleamine 2,3-dioxygenase (IDO) assay. HeLa (ATCC® CCL-2) cells were obtained from the ATCC® and cultured in Dulbecco's Modified Eagle Medium supplemented with 4.5 g/L glucose, 4.5 […] sodium pyruvate (#10-013-CV, Corning), 2 mM L-alanyl-L-glutamine dipeptide (#35050-061, Gibco), 100U/mL penicillin, 100 μg/mL streptomycin (#SV30010, HyClone) and 10% fetal bovine serum (#SH30071.03 HyClone). Cells were maintained in a humidified incubator at 37° C. in 5% CO2. […] After 24 hours, the media was aspirated and replaced with media containing IFNγ (#285-IF/CF, R&D Systems) at a final concentration of 25 ng/mL. A serial dilution of each test compound was added to the cells in a total volume of 200 μL of culture medium. After a further 48 hour incubation, 170 μL of supernatant was transferred from each well to a fresh 96-well plate. 12.1 μL of 6.1N trichloroacetic acid (#T0699, Sigma-Aldrich) was added to each well and mixed, followed by incubation at 65° C. for 20 minutes to hydrolyze N-formylkynurenine, the product of indoleamine 2,3-dioxygenase, to kynurenine. The reaction mixture was then centrifuged for 10 mins at 500×g to sediment the precipitate. 100 μL of the supernatant was transferred from each well to a fresh 96-well plate. 100 μl of 2% (w/v) p-dimethylaminobenzaldehyde (#15647-7, Sigma-Aldrich) in acetic acid (#A6283, Sigma-Aldrich) was added to each well mixed and incubated at room temperature for 20 mins. Kynurenine concentrations were determined by measuring absorbance at 480 nm and calibrating against an L-kynurenine (#K8625, Sigma-Aldrich) standard curve using a SPECTRAMAX® M2e microplate reader (Molecular Devices). The percentage activity at each inhibitor concentration was determined and IC50 values assessed using nonlinear regression. Activity for compounds described herein is provided in Table 1, wherein potency levels are provided as follows: (Potency: IDO IC50: […])

[1] abbreviates: IFNγ 25 ng/mL, 48 hour incubation, read-out: IDO Hela IC50.
Setting [2] is: potency class, read-out: Patent Potency Hela IC50 A < 10 nM, B > 10 nM, C > 100 nM.

Where two headings read alike, the source gives them in different places.

indoleamine 2,3-dioxygenase (IDO), sequence (P14902 whole entry): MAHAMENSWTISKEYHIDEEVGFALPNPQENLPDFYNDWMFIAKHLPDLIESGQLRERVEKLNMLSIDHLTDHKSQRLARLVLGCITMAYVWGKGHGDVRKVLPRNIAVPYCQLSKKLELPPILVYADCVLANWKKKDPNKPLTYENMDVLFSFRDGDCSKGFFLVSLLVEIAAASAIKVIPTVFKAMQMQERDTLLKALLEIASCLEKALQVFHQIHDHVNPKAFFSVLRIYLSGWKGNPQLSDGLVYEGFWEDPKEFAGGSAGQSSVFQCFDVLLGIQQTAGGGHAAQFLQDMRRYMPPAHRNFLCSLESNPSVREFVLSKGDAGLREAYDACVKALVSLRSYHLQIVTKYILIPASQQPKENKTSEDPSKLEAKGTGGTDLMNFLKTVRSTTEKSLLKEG

On to `CCC(NC(=O)c1ccc(OC)nc1)C1CCC(c2ccnc3ccc(C(F)(F)F)cc23)CC1` (single isomer, unassigned) [Example 11a, 6-Methoxy-N-(1-((1s,4s)-4-(6-(trifluoromethyl)quinolin-4-yl)cyclohexyl)propyl)nicotinamide], for which, under setting [1], the IC50 worked out at 100 nM. Consider `COCC(NC(=O)c1ccc(OC)nc1)C1CCC(c2ccnc3ccc(F)cc23)CC1` (stereo not drawn) [Example 14b, N-(1-((1s,4s)-4-(6-Fluoroquinolin-4-yl)cyclohexyl)-2-methoxyethyl)-6-methoxynicotinamide], for which, under setting [1], the IC50 came to 10 nM. Same read-out and setting: for `CC[C@@H](NC(=O)c1ccc(OC)nc1)[C@H]1CC[C@@H](c2ccnc3c(F)cccc32)CC1` (single isomer, unassigned) [Example 59d, N-(1-(4-(8-fluoroquinolin-4-yl)cyclohexyl)propyl)-6-methoxynicotinamide] the value was 110 nM. For `CC[C@@H](NC(=O)c1ccc(OC)nc1)[C@H]1CC[C@@H](c2ccnc3c(F)cccc32)CC1` (relative stereo) [Example 59b, N-(1-(4-(8-fluoroquinolin-4-yl)cyclohexyl)propyl)-6-methoxynicotinamide], the IC50 under setting [2] was less than 10 nM. On the same count and under the same terms, for `COCCOCC(NC(=O)c1cnc(OC)nc1)C1CCC(c2ccnc3ccc(F)cc23)CC1` (single isomer, unassigned) [Example 16b, N-(1-((1s,4s)-4-(6-Fluoroquinolin-4-yl)cyclohexyl)-2-(2-methoxyethoxy)ethyl)-2-methoxypyrimidine-5-carboxamide] the value was less than 10 nM. In the case of `CC[C@@H](NC(=O)c1ccc(OC)nc1)[C@H]1CC[C@@H](c2ccn(C)c(=O)c2)CC1` (single isomer, unassigned) [Example 31c, 6-Methoxy-N-(1-(4-(1-methyl-2-oxo-1,2-dihydropyridin-4-yl)cyclohexyl)propyl)nicotinamide], the IC50 under setting [1] came out at 190 nM. Turning to `CC[C@@H](NC(=O)c1cnc(OC)nc1)[C@H]1CC[C@@H](c2ccnc3c(F)cccc32)CC1` (single isomer, unassigned) [Example 60c, N-(1-(4-(8-fluoroquinolin-4-yl)cyclohexyl)propyl)-2-methoxypyrimidine-5-carboxamide], under setting [1], the IC50 was 10 nM.

For the compound `CC[C@@H](NC(=O)c1ccc(OC)nc1)[C@H]1CC[C@@H](c2ccnc(F)c2C)CC1` (single isomer, unassigned) [Example 56b, N-(1-(4-(2-fluoro-3-methylpyridin-4-yl)cyclohexyl)propyl)-6-methoxynicotinamide], the IC50 under setting [1] was found to be 120 nM. For the compound `CCC(NC(=O)c1ccc(OC)nc1)C1CCC(c2ccnc3cc(C(F)(F)F)ccc23)CC1` (single isomer, unassigned) [Example 19b, 6-Methoxy-N-(1-((1s,4s)-4-(7-(trifluoromethyl)quinolin-4-yl)cyclohexyl)propyl)nicotinamide], the concentration for half-maximal inhibition (IC50) under setting [1] stood at 10 nM. With `CCC(NC(=O)c1ccc(OC)nc1)C1CCC(c2ccnc3cc(C(F)(F)F)ccc23)CC1` (single isomer, unassigned) [Example 19a, 6-Methoxy-N-(1-((1s,4s)-4-(7-(trifluoromethyl)quinolin-4-yl)cyclohexyl)propyl)nicotinamide], the IC50 under setting [2] was more than 100 nM.

Regarding `CC[C@@H](NC(=O)c1ccc(OC)nc1)[C@H]1CC[C@@H](c2ccn(C)c(=O)c2)CC1` (single isomer, unassigned) [Example 31d, 6-Methoxy-N-(1-(4-(1-methyl-2-oxo-1,2-dihydropyridin-4-yl)cyclohexyl)propyl)nicotinamide], the IC50 under setting [2] is more than 100 nM. Consider `CC[C@H](NC(=O)c1cnc(C)nc1)[C@H]1CC[C@H](c2ccnc3c(F)cccc32)CC1` (single isomer, unassigned) [Example 61b, N-(1-(4-(8-fluoroquinolin-4-yl)cyclohexyl)propyl)-2-methylpyrimidine-5-carboxamide], for which the IC50 under setting [1] is 670 nM. Take `CCC(NC(=O)c1ccc(OC)nc1)C1CCC(c2ccnc(OC)c2C(F)F)CC1` (single isomer, unassigned) [Example 24a, N-(1-((1s,4s)-4-(3-(Difluoromethyl)-2-methoxypyridin-4-yl)cyclohexyl)propyl)-6-methoxynicotinamide]: the IC50 under setting [2] was less than 10 nM. `COc1ccc(C(=O)NC(CC#N)[C@H]2CC[C@@H](c3ccnc4ccc(F)cc43)CC2)cn1` (mixture of isomers) [Example 54, Cis or trans-N-(2-cyano-1-((1s,4s)-4-(6-fluoroquinolin-4-yl)cyclohexyl)ethyl)-6-methoxynicotinamide]: the IC50 under setting [1] came to 10 nM. Take `CCC(NC(=O)c1ccc(OC)nc1)C1CCC(c2cccc(C)n2)CC1` (single isomer, unassigned) [Example 46c, 6-methoxy-N-(1-(4-(6-methylpyridin-2-yl)cyclohexyl)propyl)nicotinamide]: under setting [2], the IC50 was more than 100 nM. On to `CC[C@@H](NC(=O)c1cnc(OC)nc1)[C@H]1CC[C@@H](c2ccnc(OC)c2F)CC1` (single isomer, unassigned) [Example 21d, N-(1-(4-(3-Fluoro-2-methoxypyridin-4-yl)cyclohexyl)propyl)-2-methoxypyrimidine-5-carboxamide], for which, under setting [1], the IC50 was determined as 380 nM. Same read-out and setting: in the case of `CCC(NC(=O)c1ccc(OC)nc1)C1CCC(c2cccc(=O)n2C)CC1` (single isomer, unassigned) [Example 32c, 6-Methoxy-N-(1-(4-(1-methyl-6-oxo-1,6-dihydropyridin-2-yl)cyclohexyl)propyl)nicotinamide] it was 740 nM. On to `CC[C@@H](NC(=O)c1ccc(OC)nc1)[C@H]1CC[C@@H](c2ccnc3ncccc32)CC1` (single isomer, unassigned) [Example 53c, N-(1-(4-(1,8-naphthyridin-4-yl)cyclohexyl)propyl)-6-methoxynicotinamide], for which, under setting [2], the IC50 is more than 100 nM. Same read-out and setting: in the case of `CCC(NC(=O)c1ccc(OC)nc1)C1CCC(c2ccnc(F)c2C)CC1` (single isomer, unassigned) [Example 68-2, N-(1-((1r,4r)-4-(2-Fluoro-3-methylpyridin-4-yl)cyclohexyl)propyl)-6-methoxynicotinamide] it was more than 100 nM; in that of `CCC(NC(=O)c1ccc(OC)nc1)[C@H]1CC[C@H](c2ccnc(F)c2C)CC1` (mixture of isomers) [Example 67, (±)-N-(1-((1r,4r)-4-(2-fluoro-3-methylpyridin-4-yl)cyclohexyl)propyl)-6-methoxynicotinamide], more than 100 nM; in that of `CCC(NC(=O)c1ccc(OC)nc1)C1CCC(c2cccc(=O)n2C)CC1` (single isomer, unassigned) [Example 32a, 6-Methoxy-N-(1-(4-(1-methyl-6-oxo-1,6-dihydropyridin-2-yl)cyclohexyl)propyl)nicotinamide], more than 100 nM. Consider `COc1ccc(C(=O)NC(C)C2(O)CCC(c3ccnc4ccc(F)cc34)CC2)cn1` (single isomer, unassigned) [Example 62b, N-(1-((1r,4r)-4-(6-fluoroquinolin-4-yl)-1-hydroxycyclohexyl)ethyl)-6-methoxynicotinamide], for which the IC50 under setting [1] stood at 20 nM.

Regarding `CCC(NC(=O)c1ccc(=O)[nH]c1)[C@H]1CC[C@@H](c2ccnc(OC)c2C(F)F)CC1` (stereo partly drawn) [Example 63-2, N-(1-((1s,4s)-4-(3-(difluoromethyl)-2-methoxypyridin-4-yl)cyclohexyl)propyl)-6-oxo-1,6-dihydropyridine-3-carboxamide], the IC50 under setting [2] was more than 10 nM. As to `CCC(NC(=O)c1cnc(OC)nc1)[C@H]1CC[C@@H](c2ccnc(OC)c2C(F)F)CC1` (single isomer, unassigned) [Example 25b, N-(1-((1s,4s)-4-(3-(Difluoromethyl)-2-methoxypyridin-4-yl)cyclohexyl)propyl)-2-methoxypyrimidine-5-carboxamide], under setting [1], the IC50 is 10 nM.

On to `CCC(NC(=O)c1ccc(OC)nc1)C1CCC(c2ccnc(F)c2C)CC1` (single isomer, unassigned) [Example 27a, N-(1-((1s,4s)-4-(2-Fluoro-3-methylpyridin-4-yl)cyclohexyl)propyl)-6-methoxynicotinamide], for which, under setting [1], the IC50 amounted to 490 nM.

Consider `CC[C@@H](NC(=O)c1ccc(OC)nc1)[C@H]1CC[C@@H](c2cnc3ccccc3c2)CC1` (single isomer, unassigned) [Example 20c, 6-Methoxy-N-(1-(4-(quinolin-3-yl)cyclohexyl)propyl)nicotinamide], for which the IC50 under setting [1] was 240 nM. On the same count and under the same terms, in the case of `CCC(NC(=O)c1ccc(OC)nc1)[C@H]1CC[C@@H](c2nccc(C)n2)CC1` (single isomer, unassigned) [Example 49b, (±)-6-methoxy-N-(1-(4-(4-methylpyrimidin-2-yl)cyclohexyl)propyl)nicotinamide] it was 30 nM.
